Experimental findings from US20080300135A1, “5-Alkyl-7-Amino-6-Heteroaryl-1,2,4-Triazolo[1,5-A]Pyrimidine Compounds and Their Use for Controlling Harmful Fungi” (BASF Aktiengesellschaft, priority 2005, published 2008) are described below.

For one assay, the system named is Puccinia recondita. The assay can be described thus: Curative activity against brown rust of wheat (greenhouse test). In kind it is in vivo. To be noted: 250 ppm, curative spray on wheat seedlings cv. Kanzler, 7 days; untreated control 90% infected. As for the experimental part: The active compounds were prepared separately as a stock solution with 25 mg of active compound which was made up to 10 ml with a mixture of acetone and/or DMSO and the emulsifier Uniperol® EL (wetting agent having emulsifying and dispersing action based on ethoxylated alkylphenols) in a solvent/emulsifier volume ratio of 99 to 1. The solution was then made up to 100 ml with water. This stock solution was diluted to the active compound concentration stated below using the solvent/emulsifier/water mixture described.
Example No. 1—Curative activity against brown rust of wheat caused by Puccinia recondita
Leaves of potted wheat seedlings of the cultivar “Kanzler” were inoculated with a spore suspension of brown rust (Puccinia recondita). The pots were then placed in a chamber with high atmospheric humidity (90 to 95%) and 20 to 22° C. for 24 hours. During this time, the spores germinated and the germ tubes penetrated into the leaf tissue. The next day, the infected plants were sprayed to runoff point with the above-described active compound solution at the active compound concentration stated below. After the spray coating had dried on, the test plants were cultivated in a greenhouse at temperatures between 20 and 22° C. and at 65 to 70% relative atmospheric humidity for 7 days. The extent of the rust fungus development on the leaves was then determined.

The next assay deals with Pyricularia oryzae. It counts as cell-based. The note with it: 125 ppm, day 7 after inoculation, absorption 405 nm, control = 100%.

Each structure is given as a SMILES string.

Molecule `Cc1cc(C)n(-c2c(C)nc3ncnn3c2N2CCC(C)CC2)n1` [Compound C-1, 6-(3,5-Dimethylpyrazol-1-yl)-5-methyl-7-(4-methylpiperidin-1-yl)-[1,2,4]-triazolo[1,5-a]pyrimidin] came in with an infection in the assay on Puccinia recondita of 10%. The molecule also had a relative growth in the assay on Pyricularia oryzae of 0%.
